According to EP3002287B1, “Thiochromeno[2,3-c]quinolin-12-one derivatives and their use as topoisomerase inhibitors” (National Defense Medical Center, priority 2014, dated 2016):

Columns and labels:
DU-145 = assay: MTT assay for cell cytotoxicity; assay type: cell-based, human; conditions: Homo sapiens, 72 h, at least three independent experiments, read-out: MTT assay (IC50 ± SD) DU-145
In short: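 Seeded cells pre-incubated 24 h, then treated 72 h with 0.15–15 µM compound in RPMI-1640/5% FBS at 37 °C. MTT (1 mg/mL) added for 4 h, formazan dissolved in DMSO, absorbance at 560 nm; IC50 from mean of ≥3 independent experiments.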

PC-3 = assay: MTT assay for cell cytotoxicity; assay type: cell-based, human; conditions: Homo sapiens, 72 h, at least three independent experiments, read-out: MTT assay (IC50 ± SD) PC-3
MOLT-4 = assay: NCI in vitro 60-cell drug screen (SRB assay); assay type: cell-based; conditions: MOLT-4 (Leukemia); 10^-5 molar concentration; 48 hours
RPMI-8226 = assay: NCI in vitro 60-cell drug screen (SRB assay); assay type: cell-based; conditions: RPMI-8226 (Leukemia); 10^-5 molar concentration; 48 hours
SR = assay: NCI in vitro 60-cell drug screen (SRB assay); assay type: cell-based; conditions: SR (Leukemia); 10^-5 molar concentration; 48 hours
EKVX = assay: NCI in vitro 60-cell drug screen (SRB assay); assay type: cell-based; conditions: EKVX (Non-small cell lung cancer); 10^-5 molar concentration; 48 hours
HOP-92 = assay: NCI in vitro 60-cell drug screen (SRB assay); assay type: cell-based; conditions: HOP-92 (Non-small cell lung cancer); 10^-5 molar concentration; 48 hours
NCI-H322M = assay: NCI in vitro 60-cell drug screen (SRB assay); assay type: cell-based; conditions: NCI-H322M (Non-small cell lung cancer); 10^-5 molar concentration; 48 hours
NCI-H460 = assay: NCI in vitro 60-cell drug screen (SRB assay); assay type: cell-based; conditions: NCI-H460 (Non-small cell lung cancer); 10^-5 molar concentration; 48 hours
HCC-2998 = assay: NCI in vitro 60-cell drug screen (SRB assay); assay type: cell-based; conditions: HCC-2998 (Colon cancer); 10^-5 molar concentration; 48 hours
HT29 = assay: NCI in vitro 60-cell drug screen (SRB assay); assay type: cell-based; conditions: HT29 (Colon cancer); 10^-5 molar concentration; 48 hours
KM12 = assay: NCI in vitro 60-cell drug screen (SRB assay); assay type: cell-based; conditions: KM12 (Colon cancer); 10^-5 molar concentration; 48 hours
SW-620 = assay: NCI in vitro 60-cell drug screen (SRB assay); assay type: cell-based; conditions: SW-620 (Colon cancer); 10^-5 molar concentration; 48 hours
SNB-19 = assay: NCI in vitro 60-cell drug screen (SRB assay); assay type: cell-based; conditions: SNB-19 (CNS cancer); 10^-5 molar concentration; 48 hours
U251 = assay: NCI in vitro 60-cell drug screen (SRB assay); assay type: cell-based; conditions: U251 (CNS cancer); 10^-5 molar concentration; 48 hours
MALME-3M = assay: NCI in vitro 60-cell drug screen (SRB assay); assay type: cell-based; conditions: MALME-3M (Melanoma); 10^-5 molar concentration; 48 hours
M14 = assay: NCI in vitro 60-cell drug screen (SRB assay); assay type: cell-based; conditions: M14 (Melanoma); 10^-5 molar concentration; 48 hours
SK-MEL-2 = assay: NCI in vitro 60-cell drug screen (SRB assay); assay type: cell-based; conditions: SK-MEL-2 (Melanoma); 10^-5 molar concentration; 48 hours
SK-MEL-28 = assay: NCI in vitro 60-cell drug screen (SRB assay); assay type: cell-based; conditions: SK-MEL-28 (Melanoma); 10^-5 molar concentration; 48 hours
OVCAR-4 = assay: NCI in vitro 60-cell drug screen (SRB assay); assay type: cell-based; conditions: OVCAR-4 (Ovarian cancer); 10^-5 molar concentration; 48 hours
OVCAR-8 = assay: NCI in vitro 60-cell drug screen (SRB assay); assay type: cell-based; conditions: OVCAR-8 (Ovarian cancer); 10^-5 molar concentration; 48 hours
786-0 = assay: NCI in vitro 60-cell drug screen (SRB assay); assay type: cell-based; conditions: 786-0 (Renal cancer); 10^-5 molar concentration; 48 hours
ACHN = assay: NCI in vitro 60-cell drug screen (SRB assay); assay type: cell-based; conditions: ACHN (Renal cancer); 10^-5 molar concentration; 48 hours
RXF 393 = assay: NCI in vitro 60-cell drug screen (SRB assay); assay type: cell-based; conditions: RXF 393 (Renal cancer); 10^-5 molar concentration; 48 hours
MDA-MB-231/ATCC = assay: NCI in vitro 60-cell drug screen (SRB assay); assay type: cell-based; conditions: MDA-MB-231/ATCC (Breast cancer); 10^-5 molar concentration; 48 hours
MDA-MB-486 = assay: NCI in vitro 60-cell drug screen (SRB assay); assay type: cell-based; conditions: MDA-MB-486 (Breast cancer); 10^-5 molar concentration; 48 hours

| Compound | IC50 (DU-145) | IC50 (PC-3) | Growth percent (MOLT-4) | Growth percent (RPMI-8226) | Growth percent (SR) | Growth percent (HOP-92) | Growth percent (NCI-H322M) | Growth percent (NCI-H460) | Growth percent (HCC-2998) | Growth percent (HT29) | Growth percent (KM12) | Growth percent (SW-620) | Growth percent (SNB-19) | Growth percent (U251) | Growth percent (MALME-3M) | Growth percent (M14) | Growth percent (SK-MEL-2) | Growth percent (SK-MEL-28) | Growth percent (OVCAR-4) | Growth percent (OVCAR-8) | other results |
| --- | --- | --- | --- | --- | --- | --- | --- | --- | --- | --- | --- | --- | --- | --- | --- | --- | --- | --- | --- | --- | --- |
| O=C(O)c1c(Sc2ccc(Cl)cc2)c(O)nc2ccccc12 [Compound 2, 3-((4-Chlorophenyl)thio)-2-hydroxyquinoline-4-carboxylic acid] | > 15 µM | > 15 µM | 97.25% | 98.10% | 106.33% | 72.97% | 101.10% | 104.20% | 100.97% | 101.41% | 112.61% | 96.92% | 97.17% | 99.59% | 107.05% | 106.90% | 119.91% | 98.95% | 98.41% | 114.68% | Growth percent (EKVX): 89.47%; Growth percent (786-0): 104.44%; Growth percent (ACHN): 113.47%; Growth percent (RXF 393): 113.90%; Growth percent (MDA-MB-231/ATCC): 95.70%; Growth percent (MDA-MB-486): 104.57% |
| O=c1c2cc(Cl)ccc2sc2c(N3CCN(CCO)CC3)nc3ccccc3c12 [Compound 10, 10-Chloro-6-(4-(2-hydroxyethyl)piperazin-1-yl)-12H-thiochrom eno[2,3-c]quinolin-12one] | > 15 µM | > 15 µM | 70.01% | 84.87% | 79.07% | 39.64% | 82.85% | 93.71% | 103.49% | 63.19% | 101.86% | 88.11% | 84.81% | 83.31% | 119.20% | 101.70% | 104.06% | 100.66% | 85.35% | 84.95% | Growth percent (786-0): 85.58%; Growth percent (ACHN): 83.05%; Growth percent (RXF 393): 70.31%; Growth percent (MDA-MB-231/ATCC): 55.49%; Growth percent (MDA-MB-486): 81.67% |
| O=c1c2cc(Cl)ccc2sc2c(N3CCN(Cc4ccccc4)CC3)nc3ccccc3c12 [Compound 11, 6-(4-Benzylpiperazin-1-yl)-10-chloro-12H-thiochromeno[2,3-c]q uinolin-12-one] | > 15 µM | > 15 µM | 90.91% | 96.63% | 85.15% | 70.17% | 88.92% | 95.57% | 99.32% | 102.71% | 107.75% | 93.08% | 95.52% | 96.69% | 112.36% | 93.00% | 107.37% | 104.19% | 102.43% | 98.54% | Growth percent (786-0): 105.57%; Growth percent (ACHN): 96.39%; Growth percent (RXF 393): 100.71%; Growth percent (MDA-MB-231/ATCC): 89.11%; Growth percent (MDA-MB-486): 98.53% |
| O=c1c2cc(Cl)ccc2sc2c(N3CCN(c4ccccc4)CC3)nc3ccccc3c12 [Compound 12, 10-Chloro-6-(4-phenylpiperazin-1-yl)-12H-thiochromeno[2,3-c] quinolin-12-one] | > 15 µM | > 15 µM | 107.23% | 99.93% | 103.11% | 81.27% | 84.41% | 103.24% | 105.23% | 99.94% | 113.15% | 100.20% | 105.57% | 96.09% | 121.84% | 104.02% | 104.26% | 104.22% | 94.29% | 90.34% | Growth percent (786-0): 101.58%; Growth percent (ACHN): 94.99%; Growth percent (RXF 393): 107.68%; Growth percent (MDA-MB-231/ATCC): 94.34%; Growth percent (MDA-MB-486): 86.34% |
| O=c1c2cc(Cl)ccc2sc2c(N3CCOCC3)nc3ccccc3c12 [Compound 13, 10-Chloro-6-morpholino-12H-thiochromeno[2,3-c]quinolin-12-one] | > 15 µM | > 15 µM | 89.31% | 89.54% | 88.91% | 60.43% | 88.41% | 99.28% | 108.75% | 83.73% | 88.68% | 96.18% | 99.37% | 98.58% | 118.84% | 110.35% | 98.77% | 111.28% | 96.75% | 83.66% | Growth percent (786-0): 99.31%; Growth percent (ACHN): 82.54%; Growth percent (RXF 393): 108.61%; Growth percent (MDA-MB-231/ATCC): 71.53%; Growth percent (MDA-MB-486): 39.67% |
